pIC50, pKi: −log10 of the molar value. The source made the active and inactive calls. The rule behind the calls is not given here.
Columns and labels:
[1] = molecular target: Alpha-2A adrenergic receptor (Homo sapiens, UniProt P08913); experiment: GPCRScan assay: inhibition of Alpha2A; set-up: radioligand conc. used [nm] 1.0 – 3.0, parental cells stable MDCK
[2] = molecular target: Cysteinyl leukotriene receptor 1 (Homo sapiens) (UniProt Q9Y271); experiment: Inhibition of Leukotriene, Cysteinyl CysLT1 at 10 µM in the Eurofins-Panlabs radioligand binding assay (Eurofins_assay_250460); set-up: ligand concentration 0.3 nM, non-specific ligand with concentration 0.3 µM Leukotriene D4, incubation time 30 min, incubation temperature 25 °C; conditions: Compound concentration 10.0 uM
[3] = molecular target: Substance-P receptor (Homo sapiens) (UniProt P25103); experiment: Inhibition of Tachykinin NK1 at 10 µM in the Eurofins-Panlabs radioligand binding assay (Eurofins_assay_255520); set-up: ligand concentration 0.8 nM; conditions: Compound concentration 10.0 uM
[4] = organism: Rattus norvegicus; experiment: Inhibition of Thyroid Hormone at 10 µM in the Eurofins-Panlabs radioligand binding assay (Eurofins_assay_285900); assay type: protein assay; conditions: Compound concentration 10.0 uM
[5] = molecular target: Receptor-interacting serine/threonine-protein kinase 1 (Homo sapiens, UniProt Q13546); experiment: TR-FRET (human RIPK1)
[6] = tested on: HT-29; experiment: HT29 necroptosis assay; assay type: functional, cell-based; conditions: Homo sapiens
[7] = molecular target: Sigma non-opioid intracellular receptor 1 (Homo sapiens) (UniProt Q99720); experiment: Sigma 1 Eurofins-Panlabs radioligand binding assay; set-up: ligand concentration 15 nM; conditions: Compound concentration 10.0 uM
[8] = molecular target: Activin receptor type-1 (Homo sapiens, UniProt Q04771); experiment: ALK2(ACV1LGF1) Takeda global kinase panel
[9] = molecular target: Serine/threonine-protein kinase BRSK1 (Homo sapiens, UniProt Q8TDC3); experiment: BRSK1(BRS1LGA1) Takeda global kinase panel
[10] = molecular target: Tyrosine-protein kinase BTK (Homo sapiens, UniProt Q06187); experiment: BTK(BTK1CGF1) Takeda global kinase panel
[11] = molecular target: Cyclin-dependent kinase 18 (Homo sapiens, UniProt Q07002); experiment: PCTAIRE3(CD18SGS1) Takeda global kinase panel
[12] = molecular target: Cyclin-dependent kinase 3 (Homo sapiens, UniProt Q00526); experiment: CDK3(CDK3CGS1) Takeda global kinase panel
[13] = molecular target: Cyclin-dependent kinase 7 (Homo sapiens, UniProt P50613); experiment: CDK7(CDK7CGS1) Takeda global kinase panel
[14] = molecular target: Serine/threonine-protein kinase Chk2 (Homo sapiens, UniProt O96017); experiment: CHK2(CHE2LGY1) Takeda global kinase panel
[15] = molecular target: Dual specificity protein kinase CLK2 (Homo sapiens, UniProt P49760); experiment: CLK2(CLK2LGF1) Takeda global kinase panel
[16] = molecular target: Casein kinase I isoform gamma-3 (Homo sapiens, UniProt Q9Y6M4); experiment: CK1gamma3(C1G3LGI5) Takeda global kinase panel
[17] = molecular target: Dual specificity tyrosine-phosphorylation-regulated kinase 1B (Homo sapiens, UniProt Q9Y463); experiment: DYRK1B(DY1BLHY1) Takeda global kinase panel
[18] = molecular target: Receptor-type tyrosine-protein kinase FLT3 (Homo sapiens, UniProt P36888); experiment: FLT3(FLT3MGE1) Takeda global kinase panel
[19] = molecular target: Tyrosine-protein kinase ITK/TSK (Homo sapiens, UniProt Q08881); experiment: ITK(ITK1CGF1) Takeda global kinase panel
[20] = molecular target: Dual specificity mitogen-activated protein kinase kinase 1 (Homo sapiens, UniProt Q02750); experiment: MEK1 [MAP2K1(M2K1LGF1)] Takeda global kinase panel
[21] = molecular target: Mitogen-activated protein kinase kinase kinase kinase 4 (Homo sapiens, UniProt O95819); experiment: HGK [ZC1(M4K4CGP1)] Takeda global kinase panel
[22] = molecular target: MAP kinase-activated protein kinase 2 (Homo sapiens, UniProt P49137); experiment: MAPKAPK2(MPK2LGRH) Takeda global kinase panel
[23] = molecular target: Maternal embryonic leucine zipper kinase (Homo sapiens, UniProt Q14680); experiment: MELK(MELKLGF1) Takeda global kinase panel
[24] = molecular target: Serine/threonine-protein kinase Nek3 (Homo sapiens, UniProt P51956); experiment: Nek3(NEK3LGRI) Takeda global kinase panel
[25] = molecular target: Serine/threonine-protein kinase OSR1 (Homo sapiens, UniProt O95747); experiment: OSR1(OXS1LGY1) Takeda global kinase panel
[26] = molecular target: Serine/threonine-protein kinase pim-1 (Homo sapiens, UniProt P11309); experiment: Pim1(PIM1LGP1) Takeda global kinase panel
[27] = molecular target: 5'-AMP-activated protein kinase catalytic subunit alpha-1 (Homo sapiens, UniProt Q13131); experiment: AMPKalpha1(PRA1PGF1) Takeda global kinase panel
[28] = molecular target: Ribosomal protein S6 kinase alpha-2 (Homo sapiens, UniProt Q15349); experiment: RSK3(R6A1CGE1) Takeda global kinase panel
[29] = molecular target: Ribosomal protein S6 kinase alpha-5 (Homo sapiens, UniProt O75582); experiment: MSK1(R6A5LGY1) Takeda global kinase panel
[30] = molecular target: Serine/threonine-protein kinase SIK1 (Homo sapiens, UniProt P57059); experiment: SIK(SIK1LHY1) Takeda global kinase panel
[31] = molecular target: Serine/threonine-protein kinase SIK3 (Homo sapiens, UniProt Q9Y2K2); experiment: QSK(SIK3LGP1) Takeda global kinase panel
[32] = molecular target: SRSF protein kinase 3 (Homo sapiens, UniProt Q9UPE1); experiment: MSSK1(SRP3MHRL) Takeda global kinase panel
[33] = molecular target: Serine/threonine-protein kinase 32C (Homo sapiens, UniProt Q86UX6); experiment: YANK3(S32CLGI1) Takeda global kinase panel
[34] = molecular target: Serine/threonine-protein kinase TAO2 (Homo sapiens, UniProt Q9UL54); experiment: TAO2(TAO2LGF1) Takeda global kinase panel
[35] = molecular target: Serine/threonine-protein kinase ULK1 (Homo sapiens, UniProt O75385); experiment: ULK1(ULK1LGF1) Takeda global kinase panel
[36] = molecular target: 5-hydroxytryptamine receptor 2A (Homo sapiens, UniProt P28223); conditions: Compound concentration 10.0 uM
[37] = molecular target: 5-hydroxytryptamine receptor 6 (Homo sapiens) (UniProt P50406); conditions: Compound concentration 10.0 uM
[38] = molecular target: Sodium-dependent serotonin transporter (Homo sapiens) (UniProt P31645); conditions: Compound concentration 10.0 uM
[39] = molecular target: Kappa-type opioid receptor (Homo sapiens) (UniProt P41145); conditions: Compound concentration 10.0 uM
[40] = molecular target: Histamine H4 receptor (Homo sapiens) (UniProt Q9H3N8); conditions: Compound concentration 10.0 uM
[41] = molecular target: Alpha-2C adrenergic receptor (Homo sapiens) (UniProt P18825); conditions: Compound concentration 10.0 uM
[42] = molecular target: Beta-1 adrenergic receptor (Homo sapiens) (UniProt P08588); conditions: Compound concentration 10.0 uM
[43] = organism: Rattus norvegicus; conditions: Compound concentration 10.0 uM
[44] = molecular target: Sigma intracellular receptor 2 (Homo sapiens, UniProt Q5BJF2); conditions: Compound concentration 10.0 uM
[45] = molecular target: Muscarinic acetylcholine receptor M1 (Homo sapiens) (UniProt P11229); conditions: Compound concentration 10.0 uM
[46] = molecular target: Sodium-dependent noradrenaline transporter (Homo sapiens) (UniProt P23975); conditions: Compound concentration 10.0 uM

Chain of Mitogen-activated protein kinase kinase kinase kinase 4 (O95819 whole entry): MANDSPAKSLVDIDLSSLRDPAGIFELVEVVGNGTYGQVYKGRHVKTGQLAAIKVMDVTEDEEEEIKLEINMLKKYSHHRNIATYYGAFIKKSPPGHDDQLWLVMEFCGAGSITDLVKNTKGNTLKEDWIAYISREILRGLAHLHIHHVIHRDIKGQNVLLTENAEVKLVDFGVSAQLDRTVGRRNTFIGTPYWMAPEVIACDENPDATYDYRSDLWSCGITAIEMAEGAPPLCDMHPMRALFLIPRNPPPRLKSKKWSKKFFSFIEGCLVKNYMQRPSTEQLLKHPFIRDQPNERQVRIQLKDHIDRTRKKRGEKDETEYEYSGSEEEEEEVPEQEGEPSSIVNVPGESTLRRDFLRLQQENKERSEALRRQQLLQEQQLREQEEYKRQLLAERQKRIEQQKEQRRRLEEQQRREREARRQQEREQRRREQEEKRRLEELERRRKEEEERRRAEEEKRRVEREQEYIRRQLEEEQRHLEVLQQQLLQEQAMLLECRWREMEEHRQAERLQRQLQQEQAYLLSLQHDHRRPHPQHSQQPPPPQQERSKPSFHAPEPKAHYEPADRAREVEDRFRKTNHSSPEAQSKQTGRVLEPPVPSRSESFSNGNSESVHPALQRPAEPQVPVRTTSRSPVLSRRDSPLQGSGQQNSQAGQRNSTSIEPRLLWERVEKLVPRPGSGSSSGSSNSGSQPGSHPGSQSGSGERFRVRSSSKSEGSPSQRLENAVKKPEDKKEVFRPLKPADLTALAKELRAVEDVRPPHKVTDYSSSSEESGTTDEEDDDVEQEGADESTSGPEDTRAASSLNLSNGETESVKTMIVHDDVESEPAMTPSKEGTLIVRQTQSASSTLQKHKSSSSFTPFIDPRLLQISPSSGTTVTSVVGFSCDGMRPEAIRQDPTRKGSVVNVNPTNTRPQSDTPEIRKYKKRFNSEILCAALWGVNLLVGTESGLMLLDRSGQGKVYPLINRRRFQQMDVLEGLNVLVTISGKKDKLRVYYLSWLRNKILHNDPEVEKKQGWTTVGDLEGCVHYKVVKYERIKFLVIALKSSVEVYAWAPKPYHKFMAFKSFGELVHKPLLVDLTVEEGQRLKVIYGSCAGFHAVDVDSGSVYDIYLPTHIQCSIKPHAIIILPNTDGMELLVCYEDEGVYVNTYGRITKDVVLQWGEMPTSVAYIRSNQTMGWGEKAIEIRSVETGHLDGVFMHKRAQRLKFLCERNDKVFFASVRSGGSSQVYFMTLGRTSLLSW
Chain of Serine/threonine-protein kinase BRSK1 (Q8TDC3 whole entry): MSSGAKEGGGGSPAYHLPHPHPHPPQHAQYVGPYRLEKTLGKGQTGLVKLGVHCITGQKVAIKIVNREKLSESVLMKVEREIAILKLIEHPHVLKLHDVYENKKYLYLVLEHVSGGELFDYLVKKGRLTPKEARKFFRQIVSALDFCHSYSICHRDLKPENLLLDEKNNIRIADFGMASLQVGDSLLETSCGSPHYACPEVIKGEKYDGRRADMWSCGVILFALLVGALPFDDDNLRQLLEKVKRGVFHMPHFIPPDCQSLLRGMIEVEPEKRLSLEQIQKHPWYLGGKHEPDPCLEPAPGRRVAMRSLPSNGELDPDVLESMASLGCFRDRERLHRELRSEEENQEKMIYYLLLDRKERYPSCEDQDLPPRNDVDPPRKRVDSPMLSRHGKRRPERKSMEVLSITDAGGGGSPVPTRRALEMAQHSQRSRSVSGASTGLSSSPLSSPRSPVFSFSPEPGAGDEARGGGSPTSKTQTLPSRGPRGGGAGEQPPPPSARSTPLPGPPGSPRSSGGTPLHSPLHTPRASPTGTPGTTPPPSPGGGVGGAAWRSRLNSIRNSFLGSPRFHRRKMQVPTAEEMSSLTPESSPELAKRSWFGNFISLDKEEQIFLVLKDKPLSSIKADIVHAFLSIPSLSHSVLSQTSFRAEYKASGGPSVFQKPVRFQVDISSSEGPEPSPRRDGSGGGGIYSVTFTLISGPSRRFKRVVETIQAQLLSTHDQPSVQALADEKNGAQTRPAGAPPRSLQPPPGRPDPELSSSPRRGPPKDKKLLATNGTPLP
Chain of Cysteinyl leukotriene receptor 1 (Homo sapiens) (Q9Y271 whole entry): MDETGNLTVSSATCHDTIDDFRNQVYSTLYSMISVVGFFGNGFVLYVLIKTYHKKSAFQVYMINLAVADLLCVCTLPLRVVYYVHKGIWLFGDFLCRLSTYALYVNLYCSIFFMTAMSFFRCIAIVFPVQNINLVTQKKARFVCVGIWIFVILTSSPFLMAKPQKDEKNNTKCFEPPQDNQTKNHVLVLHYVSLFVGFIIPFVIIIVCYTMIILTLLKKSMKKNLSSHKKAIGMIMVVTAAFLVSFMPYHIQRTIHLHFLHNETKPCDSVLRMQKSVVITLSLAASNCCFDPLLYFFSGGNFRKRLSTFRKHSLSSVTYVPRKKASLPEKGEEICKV
Chain of Receptor-type tyrosine-protein kinase FLT3 (P36888 whole entry): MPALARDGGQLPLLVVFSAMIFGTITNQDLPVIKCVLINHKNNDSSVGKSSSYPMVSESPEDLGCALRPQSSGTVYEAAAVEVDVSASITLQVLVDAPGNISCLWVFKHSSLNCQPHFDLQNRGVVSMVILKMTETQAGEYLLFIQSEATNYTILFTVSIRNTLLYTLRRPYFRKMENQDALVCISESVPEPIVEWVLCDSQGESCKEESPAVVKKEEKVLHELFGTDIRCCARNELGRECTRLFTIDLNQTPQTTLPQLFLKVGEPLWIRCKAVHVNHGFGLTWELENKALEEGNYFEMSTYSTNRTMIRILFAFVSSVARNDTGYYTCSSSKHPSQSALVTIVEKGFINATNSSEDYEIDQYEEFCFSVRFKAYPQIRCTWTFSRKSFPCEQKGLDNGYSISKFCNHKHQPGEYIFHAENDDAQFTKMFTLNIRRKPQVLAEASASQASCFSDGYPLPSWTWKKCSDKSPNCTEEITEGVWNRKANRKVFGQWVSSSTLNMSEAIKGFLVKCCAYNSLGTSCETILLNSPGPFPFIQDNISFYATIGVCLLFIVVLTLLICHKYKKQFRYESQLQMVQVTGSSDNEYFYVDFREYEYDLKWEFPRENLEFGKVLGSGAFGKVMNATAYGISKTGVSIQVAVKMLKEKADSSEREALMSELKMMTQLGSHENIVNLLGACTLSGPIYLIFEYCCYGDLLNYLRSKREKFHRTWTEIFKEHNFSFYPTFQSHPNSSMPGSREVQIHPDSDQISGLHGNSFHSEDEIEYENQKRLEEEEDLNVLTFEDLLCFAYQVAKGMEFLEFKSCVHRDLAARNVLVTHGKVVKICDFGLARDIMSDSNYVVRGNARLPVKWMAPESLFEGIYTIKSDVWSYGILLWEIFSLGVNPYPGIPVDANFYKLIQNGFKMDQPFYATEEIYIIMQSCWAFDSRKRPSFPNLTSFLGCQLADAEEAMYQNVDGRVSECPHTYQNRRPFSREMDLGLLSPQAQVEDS
Chain of Sodium-dependent serotonin transporter (Homo sapiens) (P31645 whole entry, looked up): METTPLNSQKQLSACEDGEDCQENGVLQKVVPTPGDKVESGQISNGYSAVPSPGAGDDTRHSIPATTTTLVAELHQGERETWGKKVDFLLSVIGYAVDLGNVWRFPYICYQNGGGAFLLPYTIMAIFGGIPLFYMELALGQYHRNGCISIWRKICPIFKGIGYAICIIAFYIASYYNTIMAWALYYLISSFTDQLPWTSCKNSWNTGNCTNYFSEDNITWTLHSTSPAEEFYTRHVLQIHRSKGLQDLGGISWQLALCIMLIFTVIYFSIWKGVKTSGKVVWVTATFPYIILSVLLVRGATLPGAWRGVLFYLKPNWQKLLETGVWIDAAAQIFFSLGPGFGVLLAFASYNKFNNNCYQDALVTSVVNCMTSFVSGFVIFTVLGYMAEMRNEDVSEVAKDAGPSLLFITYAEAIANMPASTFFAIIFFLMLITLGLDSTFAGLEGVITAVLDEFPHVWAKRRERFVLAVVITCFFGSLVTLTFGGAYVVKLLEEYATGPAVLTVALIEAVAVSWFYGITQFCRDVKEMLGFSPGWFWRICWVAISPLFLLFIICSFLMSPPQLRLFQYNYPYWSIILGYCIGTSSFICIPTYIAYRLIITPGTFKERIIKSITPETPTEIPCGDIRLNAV
Chain of Dual specificity mitogen-activated protein kinase kinase 1 (Q02750 whole entry): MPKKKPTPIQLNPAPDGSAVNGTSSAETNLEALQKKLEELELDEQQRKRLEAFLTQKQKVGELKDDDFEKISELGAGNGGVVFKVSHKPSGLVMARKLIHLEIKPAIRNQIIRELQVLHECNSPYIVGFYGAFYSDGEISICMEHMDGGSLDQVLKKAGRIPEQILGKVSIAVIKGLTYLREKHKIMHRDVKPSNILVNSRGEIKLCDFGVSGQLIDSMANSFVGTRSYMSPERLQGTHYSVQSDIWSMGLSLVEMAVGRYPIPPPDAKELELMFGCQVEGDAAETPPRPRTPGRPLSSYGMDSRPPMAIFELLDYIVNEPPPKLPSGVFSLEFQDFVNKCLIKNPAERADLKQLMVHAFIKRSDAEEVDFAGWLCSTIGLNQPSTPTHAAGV
Chain of Substance-P receptor (Homo sapiens) (P25103 whole entry): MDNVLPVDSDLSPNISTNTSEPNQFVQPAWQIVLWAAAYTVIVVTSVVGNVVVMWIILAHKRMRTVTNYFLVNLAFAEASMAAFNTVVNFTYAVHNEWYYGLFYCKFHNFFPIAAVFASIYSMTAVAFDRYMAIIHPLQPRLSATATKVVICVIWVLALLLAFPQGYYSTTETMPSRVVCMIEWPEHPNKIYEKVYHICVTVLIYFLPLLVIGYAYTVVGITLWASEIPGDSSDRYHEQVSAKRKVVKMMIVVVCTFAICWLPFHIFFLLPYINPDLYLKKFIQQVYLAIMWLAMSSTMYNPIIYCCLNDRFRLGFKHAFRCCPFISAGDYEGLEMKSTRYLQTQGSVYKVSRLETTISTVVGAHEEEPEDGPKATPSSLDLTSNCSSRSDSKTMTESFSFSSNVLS
Chain of Sigma non-opioid intracellular receptor 1 (Homo sapiens) (Q99720 whole entry): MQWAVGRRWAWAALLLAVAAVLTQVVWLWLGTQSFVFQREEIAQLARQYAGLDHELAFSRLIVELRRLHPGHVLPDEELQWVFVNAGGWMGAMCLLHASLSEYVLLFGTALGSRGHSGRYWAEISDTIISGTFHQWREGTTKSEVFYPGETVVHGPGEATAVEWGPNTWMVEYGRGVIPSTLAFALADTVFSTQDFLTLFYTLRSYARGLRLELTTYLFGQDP

SMILES: CN1C(=O)[C@@H](N2CCc3c(nn(Cc4ccccc4)c3Br)C2=O)COc2ccccc21 [TP-030-2]
- pKi [1]: 5.63
- inhibition [2]: 5%
- inhibition [3]: 17%
- inhibition [4]: 4%
- Ki [5]: 0.43 nM (active)
- IC50 [6]: 1.3 nM (active)
- inhibition [7]: 13%
- pIC50 [8]: 6.00
- pIC50 [9]: 6.00
- pIC50 [10]: 6.00
- pIC50 [11]: 6.00
- pIC50 [12]: 6.00
- pIC50 [13]: 6.00
- pIC50 [14]: 6.00
- pIC50 [15]: 6.00
- pIC50 [16]: 6.00
- pIC50 [17]: 6.00
- pIC50 [18]: 6.00
- pIC50 [19]: 6.00
- pIC50 [20]: 6.00
- pIC50 [21]: 6.00
- pIC50 [22]: 6.00
- pIC50 [23]: 6.00
- pIC50 [24]: 6.00
- pIC50 [25]: 6.00
- pIC50 [26]: 6.00
- pIC50 [27]: 6.00
- pIC50 [28]: 6.00
- pIC50 [29]: 6.00
- pIC50 [30]: 6.00
- pIC50 [31]: 6.00
- pIC50 [32]: 6.00
- pIC50 [33]: 6.00
- pIC50 [34]: 6.00
- pIC50 [35]: 6.00
- inhibition [36]: 50.6%
- inhibition [37]: 8.15%
- inhibition [38]: 22.6%
- inhibition [39]: 16.5%
- inhibition [40]: 14.7%
- inhibition [41]: 71.3%
- inhibition [42]: 12%
- inhibition [43]: 82.2%
- inhibition [44]: 53.9%
- inhibition [45]: -4%
- inhibition [46]: 27%

Reference: ChEMBL document CHEMBL4507326, “Data for DCP probe TP-030-2” (2021)
